The source of these data is PMC4490784, “Compensatory induction of MYC expression by sustained CDK9 inhibition via a BRD4-dependent mechanism” (eLife, 2015).

Assay [1] deals with T1, JAK2(JH1domain-catalytic) (Homo sapiens, UniProt O60674). Nature of the assay: KINOMEscan binding assay. The arrangement: JAK2(JH1domain-catalytic); purchased DiscoveRx KINOMEscan. As to the method: (§1) As there are no commercial or in-house kinase assays available for CDK3, CDK5, CDK11 and CDK13, the inhibitory abilities of i-CDK9 toward these CDKs were thus evaluated in the DiscoveRx KINOMEscan assay, which is based on a proprietary active site-directed competition-binding platform ([Fabian et al., 2005]).
(§2) The inhibitory activity of i-CDK9 for CDK1-CycB (Upstate/Millipore), CDK2-CycA (Invitrogen), CDK4-CycD1 (Novartis), CDK7-CycH-MAT1 (Invitrogen), and CDK9-CycT1 (Invitrogen) was assessed in the AlphaScreen (PerkinElmer, Inc)-based kinase assay developed at Novartis. Briefly, each CDK–cyclin pair was pre-incubated with i-CDK9 for 15 min, followed by addition of kinase substrates (ELK for CDK1 and CDK2, RB for CDK4, and CDK7tide for CDK7 and CDK9). The mixture was incubated at room temperature for additional 4–5 hr. The reaction was stopped and read on Envision (PerkinElmer, Inc). Selectivity against a large panel of over 400 kinases was evaluated using the KINOMEscan platform (DiscoveRx, CA) employing a proprietary active site-directed competition binding assay ([Fabian et al., 2005]). The assay was conducted at two different concentrations of i-CDK9 (1 and 10 µM) by DiscoveRx.
Target sequence in this assay (O60674 840-1132 limits assumed): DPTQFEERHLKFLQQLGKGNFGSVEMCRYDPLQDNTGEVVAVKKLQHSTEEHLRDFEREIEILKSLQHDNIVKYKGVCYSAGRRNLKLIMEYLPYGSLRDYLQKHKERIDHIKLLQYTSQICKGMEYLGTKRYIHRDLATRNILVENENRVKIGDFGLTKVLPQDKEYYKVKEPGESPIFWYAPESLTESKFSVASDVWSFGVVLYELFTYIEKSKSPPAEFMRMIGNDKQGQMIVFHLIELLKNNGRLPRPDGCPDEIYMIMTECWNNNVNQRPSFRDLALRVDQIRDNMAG

For assay [2], the target named is T2, CDK1-CycB (Homo sapiens, UniProt P06493).
T2 construct: purchased Upstate/Millipore
Nature of the assay: AlphaScreen-based kinase assay. It is filed as biochemical. As to the method:
as §2
(In general: In Alpha technology, singlet oxygen from a donor bead excites a nearby acceptor bead.)

Assay [3] has as its target T3, CDK2-CycA (Homo sapiens, UniProt P24941).
T3 construct: purchased Invitrogen
Description: AlphaScreen-based kinase assay. It is filed as biochemical. The procedure: as §2

In assay [4] the target is T4, CDK7-CycH-MAT1 (Homo sapiens, UniProt P50613).
T4 construct: purchased Invitrogen
Description: AlphaScreen-based kinase assay. Format: biochemical. As to the method:
as §2

Assay [5] deals with CDK4-CycD1 (Homo sapiens, UniProt P11802). Description: AlphaScreen-based kinase assay. Format: biochemical. The procedure: as §2
Assay [6] addresses CDK9-CycT1 (Homo sapiens, UniProt P50750). Nature of the assay: AlphaScreen-based kinase assay. It is filed as biochemical. Further details: purchased Invitrogen. As to the method:
as §2

Assay [7] has as its target CDK9 (Homo sapiens, UniProt P50750). Nature of the assay: biochemical binding or enzymatic assay. The arrangement: purchased Invitrogen. The procedure: (§3) Finally, the selectivity profile of i-CDK9 toward other non-CDK kinases was also assessed using the KINOMEscan platform. […] Except for CLK4, for which no suitable assay was available, the rest of the kinases plus a selected group of others were re-examined for the concentration-dependent effect of i-CDK9 in either functional kinase assays or binding assays. […] Indeed, it has recently been reported that DYRK1A acts as a Pol II CTD Kinase at its target gene promoters ([Di Vona et al., 2015]).

The target in assay [8] is T5, JAK1(JH1domain-catalytic) (Homo sapiens, UniProt P23458). Nature of the assay: KINOMEscan binding assay. The arrangement: JAK1(JH1domain-catalytic); purchased DiscoveRx KINOMEscan. As to the method:
as §1, §2
Target sequence in this assay (P23458 854-1154 limits assumed): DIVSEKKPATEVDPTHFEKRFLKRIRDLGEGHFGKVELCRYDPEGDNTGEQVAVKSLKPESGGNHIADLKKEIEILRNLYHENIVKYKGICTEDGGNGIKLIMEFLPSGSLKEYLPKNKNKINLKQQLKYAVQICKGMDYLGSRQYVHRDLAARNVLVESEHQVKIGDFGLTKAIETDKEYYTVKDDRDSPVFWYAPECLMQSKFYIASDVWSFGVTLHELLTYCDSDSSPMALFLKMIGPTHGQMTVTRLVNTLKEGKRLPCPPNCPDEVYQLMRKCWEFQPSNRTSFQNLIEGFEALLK

The target of assay [9] is T1, JAK2(JH1domain-catalytic). Nature of the assay: biochemical binding or enzymatic assay. Further details: JAK2(JH1domain-catalytic). The note with it: Novartis. As to the method:
as §3

The target of assay [10] is T6, PKNB(M.tuberculosis) (Mycobacterium tuberculosis, UniProt P9WI81).
T6 construct: purchased DiscoveRx KINOMEscan
Nature of the assay: KINOMEscan binding assay. The note with it: 1 µM i-CDK9; read-out: % Retention on Solid Support.

In assay [11] the target is T5, JAK1(JH1domain-catalytic). Description: biochemical binding or enzymatic assay. The arrangement: JAK1(JH1domain-catalytic). The settings on record: Novartis. As to the method: as §3
The test system of assay [12] is HeLa cells. Description: Immunoblotting of MCL-1 and PARP in HeLa cell lysates. Format: cell-based, human. The settings on record: 8 hr. The procedure: Figure 1. i-CDK9 is a potent and selective CDK9 inhibitor that elicits cellular responses indicative of P-TEFb inhibition. (A and B) Structures and selectivity profiles of i-CDK9 (A) and falvopiridol (B). […] (C) In vitro kinase reactions containing affinity-purified CDK9-F-CycT or CDK12-F-CycK and GST-CTD as a substrate were conducted in the presence of the indicated concentrations of i-CDK9. pSer2 and the Flag-tagged kinase in each reaction were detected by Western blotting with anti-pSer2 and anti-Flag antibodies, respectively. (D) HeLa cells were treated for 8 hr with DMSO or the indicated concentrations of i-CDK9. Total cell lysates were examined by immunoblotting for the proteins labeled on the left. DOI: http://dx.doi.org/10.7554/eLife.06535.003 Figure 1—source data 1. Selectivity profile of i-CDK9. DOI: http://dx.doi.org/10.7554/eLife.06535.004 Figure 1—figure supplement 1. Recombinant CDK12-CycK is less sensitive to inhibition by i-CDK9.
Inhibition of phosphorylation of both Pol II CTD and SPT5 is expected to block transcriptional elongation, which will effectively decrease the production of labile proteins from short-lived transcripts.
Background: Immunoblotting shows a protein as a band on a membrane.

Assay [13] deals with T7, recombinant CDK12-CycK (Homo sapiens, UniProt Q9NYV4).
T7 construct: purchased SignalChem; host or cells: baculovirus-produced
Description: In vitro kinase reaction with baculovirus-produced recombinant kinase (SignalChem). Format: biochemical.

CDK9-CycT1, sequence (P50750 whole entry): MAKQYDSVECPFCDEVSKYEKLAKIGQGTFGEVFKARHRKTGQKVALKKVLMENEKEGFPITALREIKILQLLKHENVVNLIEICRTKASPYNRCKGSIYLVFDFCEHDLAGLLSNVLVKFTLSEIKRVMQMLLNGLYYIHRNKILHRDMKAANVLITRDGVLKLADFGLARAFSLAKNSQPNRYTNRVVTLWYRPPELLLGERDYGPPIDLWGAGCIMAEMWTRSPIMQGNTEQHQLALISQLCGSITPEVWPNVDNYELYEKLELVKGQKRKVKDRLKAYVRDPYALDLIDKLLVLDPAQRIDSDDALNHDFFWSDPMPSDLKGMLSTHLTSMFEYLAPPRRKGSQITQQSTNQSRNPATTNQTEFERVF
CDK9-CycT1, sequence (O60563 whole entry partner): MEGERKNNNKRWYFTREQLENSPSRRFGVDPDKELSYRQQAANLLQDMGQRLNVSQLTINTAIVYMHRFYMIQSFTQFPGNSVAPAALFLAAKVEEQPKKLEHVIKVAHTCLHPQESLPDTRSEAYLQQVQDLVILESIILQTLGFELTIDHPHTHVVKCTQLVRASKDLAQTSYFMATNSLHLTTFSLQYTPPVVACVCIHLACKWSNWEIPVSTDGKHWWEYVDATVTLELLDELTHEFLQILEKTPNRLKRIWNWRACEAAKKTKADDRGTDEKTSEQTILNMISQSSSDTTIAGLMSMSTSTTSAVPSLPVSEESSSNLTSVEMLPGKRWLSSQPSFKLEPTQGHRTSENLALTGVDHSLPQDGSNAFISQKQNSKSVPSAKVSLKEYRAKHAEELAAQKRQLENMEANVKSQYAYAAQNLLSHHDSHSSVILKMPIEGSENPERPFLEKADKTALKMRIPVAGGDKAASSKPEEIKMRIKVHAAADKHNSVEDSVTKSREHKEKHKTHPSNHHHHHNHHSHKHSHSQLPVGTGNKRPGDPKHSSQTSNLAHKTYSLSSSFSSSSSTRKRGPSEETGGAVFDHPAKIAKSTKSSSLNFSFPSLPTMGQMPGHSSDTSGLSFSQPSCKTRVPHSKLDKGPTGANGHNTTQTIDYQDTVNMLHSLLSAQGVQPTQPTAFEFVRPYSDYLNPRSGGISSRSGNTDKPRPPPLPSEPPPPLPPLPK
CDK9, sequence (P50750 whole entry): as the sequence (P50750 whole entry) above
CDK9, sequence (O60563 whole entry partner): as the sequence (O60563 whole entry partner) above
T4 sequence (P50613 whole entry): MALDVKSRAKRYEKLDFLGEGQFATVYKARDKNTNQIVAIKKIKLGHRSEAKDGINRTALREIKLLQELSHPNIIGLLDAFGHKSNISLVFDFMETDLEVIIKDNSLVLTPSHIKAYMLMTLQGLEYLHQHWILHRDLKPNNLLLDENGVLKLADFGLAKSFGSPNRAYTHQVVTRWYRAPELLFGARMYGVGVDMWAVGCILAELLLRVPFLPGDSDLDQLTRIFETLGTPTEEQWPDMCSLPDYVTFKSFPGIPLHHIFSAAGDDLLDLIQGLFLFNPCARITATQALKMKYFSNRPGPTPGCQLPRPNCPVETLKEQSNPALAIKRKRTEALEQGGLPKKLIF
T4 sequence (P51946 whole entry partner): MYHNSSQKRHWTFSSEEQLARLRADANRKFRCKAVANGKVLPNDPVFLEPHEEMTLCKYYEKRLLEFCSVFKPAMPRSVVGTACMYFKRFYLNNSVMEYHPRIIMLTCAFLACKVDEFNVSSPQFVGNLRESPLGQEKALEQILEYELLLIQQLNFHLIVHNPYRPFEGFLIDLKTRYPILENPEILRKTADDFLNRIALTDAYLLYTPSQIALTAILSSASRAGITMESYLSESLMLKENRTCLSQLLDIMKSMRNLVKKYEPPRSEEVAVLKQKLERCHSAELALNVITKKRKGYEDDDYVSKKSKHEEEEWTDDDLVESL
T4 sequence (P51948 whole entry partner): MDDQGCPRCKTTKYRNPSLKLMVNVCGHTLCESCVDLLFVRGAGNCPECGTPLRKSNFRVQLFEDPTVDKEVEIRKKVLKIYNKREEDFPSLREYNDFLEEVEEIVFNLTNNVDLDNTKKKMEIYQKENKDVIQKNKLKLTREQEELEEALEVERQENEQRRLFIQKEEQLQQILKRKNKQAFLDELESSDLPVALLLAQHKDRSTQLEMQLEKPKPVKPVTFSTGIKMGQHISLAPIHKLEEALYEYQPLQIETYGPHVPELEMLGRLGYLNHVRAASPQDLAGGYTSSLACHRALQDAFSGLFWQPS
T7 sequence (Q9NYV4 whole entry): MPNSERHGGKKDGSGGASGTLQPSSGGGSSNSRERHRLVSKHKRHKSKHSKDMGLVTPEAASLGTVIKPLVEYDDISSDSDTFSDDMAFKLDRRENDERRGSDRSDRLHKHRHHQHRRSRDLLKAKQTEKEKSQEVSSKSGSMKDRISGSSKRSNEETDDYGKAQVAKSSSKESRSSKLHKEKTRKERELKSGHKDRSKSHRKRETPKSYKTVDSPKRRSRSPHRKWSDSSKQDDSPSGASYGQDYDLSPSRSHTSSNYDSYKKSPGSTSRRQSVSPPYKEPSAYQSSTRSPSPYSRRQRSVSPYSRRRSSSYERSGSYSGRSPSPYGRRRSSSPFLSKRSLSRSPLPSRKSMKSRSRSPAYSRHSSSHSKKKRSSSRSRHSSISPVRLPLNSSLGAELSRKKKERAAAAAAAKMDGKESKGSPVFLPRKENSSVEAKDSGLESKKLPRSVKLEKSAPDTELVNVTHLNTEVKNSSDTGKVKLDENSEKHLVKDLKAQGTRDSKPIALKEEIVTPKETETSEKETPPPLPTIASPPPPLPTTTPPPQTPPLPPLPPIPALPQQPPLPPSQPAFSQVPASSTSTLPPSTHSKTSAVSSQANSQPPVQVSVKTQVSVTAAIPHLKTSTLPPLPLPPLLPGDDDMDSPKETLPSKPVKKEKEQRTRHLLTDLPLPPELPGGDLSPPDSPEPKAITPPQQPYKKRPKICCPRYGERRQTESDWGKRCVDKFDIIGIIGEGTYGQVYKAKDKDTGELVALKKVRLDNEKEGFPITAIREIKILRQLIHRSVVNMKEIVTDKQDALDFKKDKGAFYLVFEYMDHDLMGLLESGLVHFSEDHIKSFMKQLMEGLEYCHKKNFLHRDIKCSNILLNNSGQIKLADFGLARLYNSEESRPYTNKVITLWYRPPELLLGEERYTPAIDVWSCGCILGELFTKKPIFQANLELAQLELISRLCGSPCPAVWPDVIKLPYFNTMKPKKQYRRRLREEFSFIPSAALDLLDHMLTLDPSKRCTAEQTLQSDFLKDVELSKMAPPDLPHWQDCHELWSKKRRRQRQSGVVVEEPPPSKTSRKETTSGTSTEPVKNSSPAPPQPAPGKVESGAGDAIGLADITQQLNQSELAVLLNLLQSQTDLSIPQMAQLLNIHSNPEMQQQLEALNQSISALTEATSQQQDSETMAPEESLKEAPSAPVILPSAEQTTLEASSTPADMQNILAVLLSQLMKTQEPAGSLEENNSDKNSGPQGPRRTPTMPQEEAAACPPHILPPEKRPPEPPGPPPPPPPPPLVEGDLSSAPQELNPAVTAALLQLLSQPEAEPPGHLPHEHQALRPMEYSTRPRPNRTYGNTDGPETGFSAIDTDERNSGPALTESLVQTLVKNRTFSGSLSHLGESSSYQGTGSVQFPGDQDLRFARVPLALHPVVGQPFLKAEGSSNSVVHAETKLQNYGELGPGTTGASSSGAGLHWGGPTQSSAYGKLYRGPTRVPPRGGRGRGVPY
T7 sequence (O75909 whole entry partner): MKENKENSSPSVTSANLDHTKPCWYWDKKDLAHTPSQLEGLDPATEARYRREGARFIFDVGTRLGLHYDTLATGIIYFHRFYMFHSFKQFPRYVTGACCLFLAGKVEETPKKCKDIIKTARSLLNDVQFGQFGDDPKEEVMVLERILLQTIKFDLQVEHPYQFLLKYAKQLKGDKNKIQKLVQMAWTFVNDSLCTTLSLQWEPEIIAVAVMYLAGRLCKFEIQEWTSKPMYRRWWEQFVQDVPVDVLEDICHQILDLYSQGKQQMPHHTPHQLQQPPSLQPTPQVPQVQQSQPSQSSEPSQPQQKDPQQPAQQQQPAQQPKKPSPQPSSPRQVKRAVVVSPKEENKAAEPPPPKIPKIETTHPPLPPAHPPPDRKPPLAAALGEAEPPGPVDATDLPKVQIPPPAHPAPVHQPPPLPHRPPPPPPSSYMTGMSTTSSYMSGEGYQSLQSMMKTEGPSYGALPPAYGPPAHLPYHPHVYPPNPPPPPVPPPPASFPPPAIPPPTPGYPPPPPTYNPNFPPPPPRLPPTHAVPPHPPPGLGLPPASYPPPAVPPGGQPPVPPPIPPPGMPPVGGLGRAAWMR

By IC50 is commonly meant the concentration that inhibits the measured activity by half. Read a high IC50 as a need for much substance. Take `N[C@H]1CC[C@H](Nc2cc(-c3cccc(NCc4cccc(F)c4)n3)c(Cl)cn2)CC1` [i-CDK9, N2′-(trans-4-aminocyclohexyl)-5′-chloro-N6-(3-fluorobenzyl)-2,4′-bipyridine-2′,6-diamine]: the “% Retention on Solid Support” value in [1] (1 µM i-CDK9) was determined as 76%; in assay [1] (10 µM i-CDK9), 84%; in assay [8] (1 µM i-CDK9), 100%; in assay [8] (10 µM i-CDK9), 100%. Further, the IC50 in [2] is 1700 nM; in [3] it was 240 nM; in assay [4], 2000 nM; in assay [5], 1800 nM; in [6] it was at most 0.4 nM; in [7], under 0.4 nM. Moreover, the IC50 in [9] and in [11] was over 10000 nM throughout. Further, the “fold lower activity toward CDK1-CycB, CDK2-CycA, CDK4-CycD1, CDK7-CycH-MAT1 and CDK8-CycC compared to CDK9-CycT1” value in [6] (selectivity) was “at least 600 fold”. Moreover, the “fold difference between CDK9 and the next two best targets DYRK1A and DYRK1B” value in assay [7] (selectivity) was “more than 100 fold”. The remaining binding at 1 µM in assay [10] amounted to 100%. In addition, the “cleavage of PARP” value in assay [12] is “induced proteolytic cleavage”. The “expression of MCL-1” value in [12] was “markedly down-regulated”. Also, the “i-CDK9 concentration at which the kinase was significantly inhibited” value in assay [13] fell in the range of 640 to 1200 nM.
